PubChem BioAssay AID248 (DTP/NCI, 2004)
Values joined by “and” are separate entries in the source; they are usually repeats but may differ in a detail not shown here. Identical values can stand only once. Toxic doses and inconclusive results are not listed. Rule as the data show it: active = T/C of 150% or more; inactive = T/C below 125%.

Tested on: L1210 leukemia ip in BDF1 mice, survival T/C
Assay: NCI In Vivo Anticancer Drug Screen. Data for tumor model L1210 Leukemia (intraperitoneal) in B6D2F1 (BDF1) mice
Details: endpoint: mean survival time, higher = longer survival
In short: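 Antitumor effect is assessed in tumor-bearing animals. Survival in the compound arm is compared with a vehicle-dosed control arm and expressed as their quotient.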

[1] = dose: 50.0 mg/kg/injection, schedule: Q01DX009 (ip), vehicle: Klucel (hydroxypropylcellulose) (HPC)
[2] = dose: 100.0 mg/kg/injection, schedule: Q04DX003 (ip), vehicle: Klucel (hydroxypropylcellulose) (HPC)
[3] = dose: 200.0 mg/kg/injection, schedule: Q04DX003 (ip), vehicle: Klucel (hydroxypropylcellulose) (HPC)
[4] = dose: 400.0 mg/kg/injection, schedule: Q04DX003 (ip), vehicle: Klucel (hydroxypropylcellulose) (HPC)
[5] = dose: 100.0 mg/kg/injection, schedule: Q01DX001 (ip), vehicle: Klucel (hydroxypropylcellulose) (HPC)
[6] = dose: 200.0 mg/kg/injection, schedule: Q01DX001 (ip), vehicle: Klucel (hydroxypropylcellulose) (HPC)
[7] = dose: 400.0 mg/kg/injection, schedule: Q01DX001 (ip), vehicle: Klucel (hydroxypropylcellulose) (HPC)
[8] = dose: 100.0 mg/kg/injection, schedule: Q01DX001 (ip), vehicle: saline
[9] = dose: 200.0 mg/kg/injection, schedule: Q01DX001 (ip), vehicle: saline
[10] = dose: 400.0 mg/kg/injection, schedule: Q01DX001 (ip), vehicle: saline
[11] = dose: 100.0 mg/kg/injection, schedule: Q01DX009 (ip), vehicle: Klucel (hydroxypropylcellulose) (HPC)

Measured: T/C

Cc1cc(=O)n2c3c(c4c(cc13)c(CBr)cc(=O)n4C)OC2
inactive: dose: 25.0 mg/kg/injection, schedule: Q01DX009 (ip), vehicle: Klucel (hydroxypropylcellulose) (HPC) 86 % of control | [1] 102 % of control | dose: 75.0 mg/kg/injection, schedule: Q01DX009 (ip), vehicle: Klucel (hydroxypropylcellulose) (HPC) 94 % of control and 87 % of control | [2] 103 % of control | [3] 93 % of control | [4] 104 % of control

CCCCCCCC(=O)N1C(=O)CCC1C(=O)NCC(=O)NCC(=O)OCc1ccccc1 (centres undefined)
inactive: [5] 95 % of control | [6] 98 % of control | [7] 91 % of control

CS(=O)(=O)Oc1ccccc1N(S(C)(=O)=O)S(C)(=O)=O
inactive: [5] 107 % of control | [2] 107 % of control | [6] 110 % of control | [3] 107 % of control | [7] 104 % of control | [4] 102 % of control

Nc1cc(Nc2cccc(Br)c2)nc(N)n1
inactive: dose: 100.0 mg/kg/injection, schedule: Q04DX002 (ip), vehicle: Klucel (hydroxypropylcellulose) (HPC) 97 % of control | dose: 200.0 mg/kg/injection, schedule: Q04DX002 (ip), vehicle: Klucel (hydroxypropylcellulose) (HPC) 108 % of control

CN(C)CCN1C(=O)c2ccccc2C(C(C)(C)[N+](=O)[O-])c2ccccc21 (centres undefined)
inactive: [2] 102 % of control | [3] 98 % of control | [4] 93 % of control

Brc1nc(-c2ccccc2)c(-c2ccccc2)nc1Br
inactive: [8] 96 % of control | [9] 88 % of control | [10] 88 % of control

CC(C)=C1C2CCC1C1C(=O)OC(=O)C21 (centres undefined)
inactive: [1] 95 % of control | dose: 50.0 mg/kg/injection, schedule: Q04DX003 (ip), vehicle: Klucel (hydroxypropylcellulose) (HPC) 102 % of control | [5] 98 % of control | [11] 88 % of control | [2] 102 % of control | [6] 105 % of control | [3] 100 % of control

Cc1c2ccccc2nc2ccccc12
inactive: [8] 106 % of control | [9] 98 % of control | [10] 101 % of control

NC1C2CC3CC(C2)CC1C3 (centres undefined)
inactive: dose: 5.0 mg/kg/injection, schedule: Q01DX001 (ip), vehicle: saline 102 % of control | dose: 10.0 mg/kg/injection, schedule: Q01DX001 (ip), vehicle: saline 98 % of control | dose: 20.0 mg/kg/injection, schedule: Q01DX001 (ip), vehicle: saline 107 % of control | dose: 40.0 mg/kg/injection, schedule: Q01DX001 (ip), vehicle: saline 96 % of control | dose: 75.0 mg/kg/injection, schedule: Q01DX001 (ip), vehicle: other 93 % of control | dose: 80.0 mg/kg/injection, schedule: Q01DX001 (ip), vehicle: saline 96 % of control

C#CCOC(=O)C1C2CCC(O2)C1C(=O)O (centres undefined)
inactive: dose: 1.25 mg/kg/injection, schedule: Q01DX009 (ip), vehicle: saline 100 % of control | dose: 2.5 mg/kg/injection, schedule: Q01DX009 (ip), vehicle: saline 109 % of control

O=c1oc(-c2cccc(Cl)c2)nc2cc(Cl)ccc12
inactive: [11] 104 % of control | dose: 200.0 mg/kg/injection, schedule: Q01DX009 (ip), vehicle: Klucel (hydroxypropylcellulose) (HPC) 116 % of control | dose: 400.0 mg/kg/injection, schedule: Q01DX009 (ip), vehicle: Klucel (hydroxypropylcellulose) (HPC) 115 % of control
